These are literature values, as cited in patent EP1897537A1, “Composition comprising an angiotensin II receptor antagonist” (Novartis AG, priority 2006, dated 2008).

The conditions of series [1]: immediate release tablet formulation (Diovan ®).
For series [2] the following is noted: most acidic pKa; fumaric acid values at 25 °C.

Structures are written as SMILES.

For `CCCCC(=O)N(Cc1ccc(-c2ccccc2-c2nnn[nH]2)cc1)[C@H](C(=O)O)C(C)C` [Valsartan, (S)-N-(1-carboxy-2-methylprop-1-yl)-N-pentanoyl-N-[2'-(1H-tetrazol-5-yl)biphenyl-4-ylmethyl]amine], the bioavailability result in series [1] is recorded as “around 30%”.

Turning to `O=C(O)CCC(=O)O` [succinic acid], the pKa1 entry in series [2] was “about 4.2”.
